According to PubChem BioAssay (NCI):
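Tested at 5 concentrations; 48 h exposure; 96-well plates; endpoints linearly interpolated, else capped at highest concentration. TGI is the concentration that stops growth completely.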

What was measured:
Assay in all cases: NCI tumour cell line growth inhibition, 48 h
M14 melanoma = tested on: M14 melanoma
NCI-H23 lung = tested on: NCI-H23 lung
SNB-78 CNS = tested on: SNB-78 CNS
LOX IMVI melanoma = tested on: LOX IMVI melanoma
PC-3 prostate = tested on: PC-3 prostate
HCC-2998 colon = tested on: HCC-2998 colon
OVCAR-4 ovarian = tested on: OVCAR-4 ovarian
UO-31 renal = tested on: UO-31 renal
SK-MEL-2 melanoma = tested on: SK-MEL-2 melanoma
SR leukemia = tested on: SR leukemia
RPMI-8226 leukemia = tested on: RPMI-8226 leukemia
HCT-15 colon = tested on: HCT-15 colon
T-47D breast = tested on: T-47D breast
MDA-MB-231 breast = tested on: MDA-MB-231 breast
SF-295 CNS = tested on: SF-295 CNS
LXFL 529 NSCLC = tested on: LXFL 529 NSCLC
M19-MEL melanoma = tested on: M19-MEL melanoma
SK-MEL-5 melanoma = tested on: SK-MEL-5 melanoma
COLO 205 colon = tested on: COLO 205 colon
TK-10 renal = tested on: TK-10 renal
U251 CNS = tested on: U251 CNS
KM20L2 colon = tested on: KM20L2 colon
NCI/ADR-RES ovarian = tested on: NCI/ADR-RES ovarian
MOLT-4 leukemia = tested on: MOLT-4 leukemia
SK-OV-3 ovarian = tested on: SK-OV-3 ovarian
SF-539 CNS = tested on: SF-539 CNS
DU-145 prostate = tested on: DU-145 prostate
SK-MEL-28 melanoma = tested on: SK-MEL-28 melanoma
XF 498 CNS = tested on: XF 498 CNS
NCI-H522 lung = tested on: NCI-H522 lung
HOP-62 NSCLC = tested on: HOP-62 NSCLC
K-562 leukemia = tested on: K-562 leukemia
CCRF-CEM leukemia = tested on: CCRF-CEM leukemia
RXF 393 renal = tested on: RXF 393 renal
MDA-N = tested on: MDA-N
HT29 colon = tested on: HT29 colon
KM12 colon = tested on: KM12 colon
SW-620 colon = tested on: SW-620 colon
OVCAR-8 ovarian = tested on: OVCAR-8 ovarian
NCI-H226 lung = tested on: NCI-H226 lung
HCT-116 colon = tested on: HCT-116 colon
786-0 renal = tested on: 786-0 renal
IGROV1 ovarian = tested on: IGROV1 ovarian
SN12C renal = tested on: SN12C renal
DMS 273 small cell lung = tested on: DMS 273 small cell lung
NCI-H460 lung = tested on: NCI-H460 lung
OVCAR-3 ovarian = tested on: OVCAR-3 ovarian
ACHN renal = tested on: ACHN renal
HOP-92 NSCLC = tested on: HOP-92 NSCLC
CAKI-1 renal = tested on: CAKI-1 renal
RXF-631 renal = tested on: RXF-631 renal
MCF7 breast = tested on: MCF7 breast
DLD-1 colon = tested on: DLD-1 colon
OVCAR-5 ovarian = tested on: OVCAR-5 ovarian
UACC-62 melanoma = tested on: UACC-62 melanoma
SNB-75 CNS = tested on: SNB-75 CNS
SF-268 CNS = tested on: SF-268 CNS
A498 renal = tested on: A498 renal
HL-60(TB) leukemia = tested on: HL-60(TB) leukemia
HS 578T breast = tested on: HS 578T breast
BT-549 breast = tested on: BT-549 breast
MALME-3M melanoma = tested on: MALME-3M melanoma
SNB-19 CNS = tested on: SNB-19 CNS
UACC-257 melanoma = tested on: UACC-257 melanoma
HOP-18 NSCLC = tested on: HOP-18 NSCLC
EKVX NSCLC = tested on: EKVX NSCLC
A549 NSCLC = tested on: A549 NSCLC
MDA-MB-435 = tested on: MDA-MB-435
DMS 114 small cell lung = tested on: DMS 114 small cell lung
SN12K1 renal = tested on: SN12K1 renal
P388 leukemia = tested on: P388 leukemia
P388/ADR leukemia = tested on: P388/ADR leukemia

Question: Which results are given for `NC(N)=NCCCS(=O)(=O)Nc1ccc(Nc2c3ccccc3nc3cc([N+](=O)[O-])ccc23)cc1`?
Answer: TGI (M14 melanoma): > 87.2 µM; TGI (NCI-H23 lung): 35.6 µM; TGI (SNB-78 CNS): > 63.5 µM; TGI (LOX IMVI melanoma): > 75.7 µM; TGI (PC-3 prostate): 67.9 µM; TGI (HCC-2998 colon): 44.1 µM; TGI (OVCAR-4 ovarian): 48.9 µM; TGI (UO-31 renal): > 100 µM; TGI (SK-MEL-2 melanoma): 66.1 µM; TGI (SR leukemia): > 100 µM; TGI (RPMI-8226 leukemia): 66.6 µM; TGI (HCT-15 colon): > 100 µM; TGI (T-47D breast): 11.4 µM; TGI (MDA-MB-231 breast): 66.5 µM; TGI (SF-295 CNS): 59 µM; TGI (LXFL 529 NSCLC): 29.9 µM; TGI (M19-MEL melanoma): 24.1 µM; TGI (SK-MEL-5 melanoma): 45.3 µM; TGI (COLO 205 colon): 56.2 µM; TGI (TK-10 renal): > 84.5 µM; TGI (U251 CNS): 29.5 µM; TGI (KM20L2 colon): > 76.2 µM; TGI (NCI/ADR-RES ovarian): 58.8 µM; TGI (MOLT-4 leukemia): 43.6 µM; TGI (SK-OV-3 ovarian): 55.5 µM; TGI (SF-539 CNS): 52.1 µM; TGI (DU-145 prostate): 25.2 µM; TGI (SK-MEL-28 melanoma): 40.7 µM; TGI (XF 498 CNS): 27.9 µM; TGI (NCI-H522 lung): 61 µM; TGI (HOP-62 NSCLC): 39.3 µM; TGI (K-562 leukemia): > 89.7 µM; TGI (CCRF-CEM leukemia): > 74.9 µM; TGI (RXF 393 renal): 67.2 µM; TGI (MDA-N): 81.1 µM; TGI (HT29 colon): 55 µM; TGI (KM12 colon): 51.4 µM; TGI (SW-620 colon): 58 µM; TGI (OVCAR-8 ovarian): > 92.9 µM; TGI (NCI-H226 lung): 45.5 µM; TGI (HCT-116 colon): 63.5 µM; TGI (786-0 renal): 53.2 µM; TGI (IGROV1 ovarian): 79.5 µM; TGI (SN12C renal): 60.9 µM; TGI (DMS 273 small cell lung): 37.2 µM; TGI (NCI-H460 lung): 33 µM; TGI (OVCAR-3 ovarian): 66.4 µM; TGI (ACHN renal): 63 µM; TGI (HOP-92 NSCLC): 28.5 µM; TGI (CAKI-1 renal): > 93.5 µM; TGI (RXF-631 renal): > 100 µM; TGI (MCF7 breast): 87.7 µM; TGI (DLD-1 colon): > 93.4 µM; TGI (OVCAR-5 ovarian): > 74.1 µM; TGI (UACC-62 melanoma): 51.7 µM; TGI (SNB-75 CNS): 45.8 µM; TGI (SF-268 CNS): 35.6 µM; TGI (A498 renal): 65.8 µM; TGI (HL-60(TB) leukemia): > 82.4 µM; TGI (HS 578T breast): 50.9 µM; TGI (BT-549 breast): 94.4 µM; TGI (MALME-3M melanoma): 37.2 µM; TGI (SNB-19 CNS): 28.8 µM; TGI (UACC-257 melanoma): 68.1 µM; TGI (HOP-18 NSCLC): 58.7 µM; TGI (EKVX NSCLC): 70.7 µM; TGI (A549 NSCLC): 36.6 µM; TGI (MDA-MB-435): > 100 µM; TGI (DMS 114 small cell lung): 28.8 µM

Question: With `CSc1nc(NC2OC(CO)C(O)C(O)C2O)c(N)c(=O)n1C` (stereo not given) as the molecule, how does the TGI (NCI-H23 lung) read?
Answer: Its TGI is over 100 µM.

Question: What about the TGI (SNB-78 CNS) of the same molecule?
Answer: The TGI was over 100 µM.

Question: What about the TGI (LOX IMVI melanoma) of the same molecule?
Answer: The TGI was over 100 µM.

Question: What about the TGI (HCC-2998 colon) of the same molecule?
Answer: Its TGI is over 100 µM.

Question: What about the TGI (OVCAR-4 ovarian) of the same molecule?
Answer: Its TGI is over 100 µM.

Question: What about the TGI (UO-31 renal) of the same molecule?
Answer: The TGI was over 100 µM.

Question: And the TGI (SK-MEL-2 melanoma)?
Answer: Its TGI is over 100 µM.

Question: And the TGI (RPMI-8226 leukemia)?
Answer: Its TGI is over 100 µM.

Question: What about the TGI (HCT-15 colon) of the same molecule?
Answer: The TGI was over 100 µM.

Question: And the TGI (SF-295 CNS)?
Answer: The TGI was over 100 µM.

Question: What about the TGI (M19-MEL melanoma) of the same molecule?
Answer: The TGI was over 100 µM.

Question: What about the TGI (SK-MEL-5 melanoma) of the same molecule?
Answer: Its TGI is over 100 µM.

Question: What about the TGI (COLO 205 colon) of the same molecule?
Answer: Its TGI is over 100 µM.

Question: What about the TGI (U251 CNS) of the same molecule?
Answer: The TGI was over 100 µM.

Question: And the TGI (KM20L2 colon)?
Answer: The TGI was over 100 µM.

Question: And the TGI (NCI/ADR-RES ovarian)?
Answer: The TGI was over 100 µM.

Question: And the TGI (MOLT-4 leukemia)?
Answer: Its TGI is over 100 µM.

Question: What about the TGI (SK-OV-3 ovarian) of the same molecule?
Answer: Its TGI is over 100 µM.

Question: And the TGI (SF-539 CNS)?
Answer: Its TGI is over 100 µM.

Question: And the TGI (SK-MEL-28 melanoma)?
Answer: The TGI was over 100 µM.

Question: What about the TGI (XF 498 CNS) of the same molecule?
Answer: The TGI was over 100 µM.

Question: What about the TGI (NCI-H522 lung) of the same molecule?
Answer: The TGI was over 100 µM.

Question: And the TGI (HOP-62 NSCLC)?
Answer: The TGI was over 100 µM.

Question: What about the TGI (K-562 leukemia) of the same molecule?
Answer: Its TGI is over 100 µM.

Question: And the TGI (CCRF-CEM leukemia)?
Answer: Its TGI is over 100 µM.

Question: And the TGI (RXF 393 renal)?
Answer: The TGI was over 100 µM.

Question: What about the TGI (HT29 colon) of the same molecule?
Answer: The TGI was over 100 µM.

Question: What about the TGI (KM12 colon) of the same molecule?
Answer: The TGI was over 100 µM.

Question: What about the TGI (SW-620 colon) of the same molecule?
Answer: Its TGI is over 100 µM.

Question: What about the TGI (OVCAR-8 ovarian) of the same molecule?
Answer: The TGI was over 100 µM.

Question: What about the TGI (NCI-H226 lung) of the same molecule?
Answer: Its TGI is over 100 µM.

Question: What about the TGI (HCT-116 colon) of the same molecule?
Answer: Its TGI is over 100 µM.

Question: And the TGI (IGROV1 ovarian)?
Answer: Its TGI is over 100 µM.

Question: And the TGI (SN12K1 renal)?
Answer: The TGI was over 100 µM.

Question: And the TGI (SN12C renal)?
Answer: Its TGI is over 100 µM.

Question: And the TGI (DMS 273 small cell lung)?
Answer: Its TGI is over 100 µM.

Question: And the TGI (NCI-H460 lung)?
Answer: Its TGI is over 100 µM.

Question: What about the TGI (OVCAR-3 ovarian) of the same molecule?
Answer: Its TGI is over 100 µM.

Question: And the TGI (P388 leukemia)?
Answer: The TGI was over 100 µM.

Question: And the TGI (HOP-92 NSCLC)?
Answer: Its TGI is over 100 µM.

Question: What about the TGI (MCF7 breast) of the same molecule?
Answer: Its TGI is over 100 µM.

Question: And the TGI (DLD-1 colon)?
Answer: Its TGI is over 100 µM.

Question: And the TGI (OVCAR-5 ovarian)?
Answer: Its TGI is over 100 µM.

Question: And the TGI (UACC-62 melanoma)?
Answer: The TGI was over 100 µM.

Question: And the TGI (SNB-75 CNS)?
Answer: Its TGI is over 100 µM.

Question: And the TGI (SF-268 CNS)?
Answer: The TGI was over 100 µM.

Question: And the TGI (A498 renal)?
Answer: The TGI was over 100 µM.

Question: What about the TGI (HL-60(TB) leukemia) of the same molecule?
Answer: The TGI was over 100 µM.

Question: And the TGI (MALME-3M melanoma)?
Answer: The TGI was over 100 µM.

Question: What about the TGI (SNB-19 CNS) of the same molecule?
Answer: The TGI was over 100 µM.

Question: And the TGI (P388/ADR leukemia)?
Answer: The TGI was over 100 µM.

Question: And the TGI (UACC-257 melanoma)?
Answer: The TGI was over 100 µM.

Question: And the TGI (HOP-18 NSCLC)?
Answer: The TGI was over 100 µM.

Question: What about the TGI (EKVX NSCLC) of the same molecule?
Answer: Its TGI is over 100 µM.

Question: And the TGI (A549 NSCLC)?
Answer: Its TGI is over 100 µM.

Question: What about the TGI (DMS 114 small cell lung) of the same molecule?
Answer: The TGI was over 100 µM.
